Results: ChEMBL document CHEMBL4118194, “Molecular modeling, synthesis, antibacterial and cytotoxicity evaluation of sulfonamide derivatives of benzimidazole, indazole, benzothiazole and thiazole” (Bioorg Med Chem, 2018)
In brackets after ≈: the same amount, converted by molar mass.

Assays:
[1] = tested on: Escherichia coli; test: Antibacterial activity against Escherichia coli U-621 mutant after 24 hrs by broth micro dilution method; format: functional; details: U-621, 24 h
[2] = tested on: Staphylococcus aureus; test: Antibacterial activity against Staphylococcus aureus NCIM 2079 after 24 hrs by broth micro dilution method; format: functional; details: NCIM 2079, 24 h
[3] = tested on: CCRF-CEM; test: Cytotoxicity against human CEM cells assessed as decrease in cell viability after 5 days by MTT assay; format: cell-based; details: 120 h
[4] = tested on: Vero; test: Cytotoxicity against African green monkey Vero cells assessed as decrease in cell viability after 3 days by MTT assay; format: cell-based; details: Chlorocebus sabaeus, 72 h
[5] = tested on: PBMC; test: Cytotoxicity against human PBMC assessed as decrease in cell viability after 5 days by MTT assay; format: cell-based; details: 120 h
[6] = tested on: Pseudomonas aeruginosa; test: Antibacterial activity against Pseudomonas aeruginosa NCIM 2036 after 24 hrs by broth micro dilution method; format: functional; details: NCIM 2036, 24 h
[7] = tested on: Bacillus cereus; test: Antibacterial activity against Bacillus cereus NCIM 2156 after 24 hrs by broth micro dilution method; format: functional; details: NCIM 2156, 24 h
[8] = tested on: Escherichia coli; test: Synergistic antibacterial activity against wild type Escherichia coli NCIM 2065 assessed as fractional inhibitory concentration at 0.5 times MIC after 24 hrs in presence of 0.0976 to […] sulfamethoxazole by broth micro dilution method; format: functional
[9] = tested on: Escherichia coli; test: Potency index, ratio of […] MIC to compound MIC for Escherichia coli U-621 mutant; format: functional
[10] = tested on: Pseudomonas aeruginosa; test: Synergistic antibacterial activity against Pseudomonas aeruginosa NCIM 2036 assessed as fractional inhibitory concentration at 0.5 times MIC after 24 hrs in presence of 0.0976 to […] chloramphenicol by broth micro dilution method; format: functional
[11] = tested on: Pseudomonas aeruginosa; test: Synergistic antibacterial activity against Pseudomonas aeruginosa NCIM 2036 at 0.5 times MIC after 24 hrs in presence of 0.0976 to […] chloramphenicol by broth micro dilution method relative to compound alone; format: functional
[12] = tested on: Pseudomonas aeruginosa; test: Synergistic antibacterial activity against Pseudomonas aeruginosa NCIM 2036 assessed as fractional inhibitory concentration at 0.37 to 50 ug/ml after 24 hrs in presence of […] sulfamethoxazole by broth micro dilution method; format: functional
[13] = tested on: Escherichia coli; test: Synergistic antibacterial activity against wild type Escherichia coli NCIM 2065 assessed as fractional inhibitory concentration at 0.5 times MIC after 24 hrs in presence of 0.0976 to […] chloramphenicol by broth micro dilution method; format: functional
[14] = tested on: Pseudomonas aeruginosa; test: Synergistic antibacterial activity against Pseudomonas aeruginosa NCIM 2036 at 0.37 to 50 ug/ml after 24 hrs in presence of […] sulfamethoxazole by broth micro dilution method; format: functional; details: NCIM 2036, 24 h
[15] = tested on: Escherichia coli; test: Synergistic antibacterial activity against wild type Escherichia coli NCIM 2065 at 0.5 times MIC after 24 hrs in presence of 0.0976 to […] sulfamethoxazole by broth micro dilution method; format: functional; details: NCIM 2065, 24 h
[16] = tested on: Pseudomonas aeruginosa; test: Synergistic antibacterial activity against Pseudomonas aeruginosa NCIM 2036 at 0.5 times MIC after 24 hrs in presence of 0.0976 to […] chloramphenicol by broth micro dilution method; format: functional; details: NCIM 2036, 24 h
[17] = tested on: Escherichia coli; test: Synergistic antibacterial activity against wild type Escherichia coli NCIM 2065 at 0.5 times MIC after 24 hrs in presence of 0.0976 to […] chloramphenicol by broth micro dilution method; format: functional; details: NCIM 2065, 24 h
[18] = tested on: Escherichia coli; test: Antibacterial activity against wild type Escherichia coli NCIM 2065 after 24 hrs by broth micro dilution method; format: functional; details: NCIM 2065, 24 h
[19] = tested on: Escherichia coli; test: Potency index, ratio of sulfamethoxazole MIC to compound MIC for Escherichia coli U-621 mutant; format: functional
[20] = tested on: Staphylococcus aureus; test: Synergistic antibacterial activity against Staphylococcus aureus NCIM 2079 assessed as fractional inhibitory concentration at 0.37 to 50 ug/ml after 24 hrs in presence of […] chloramphenicol by broth micro dilution method; format: functional
[21] = tested on: Bacillus cereus; test: Synergistic antibacterial activity against Bacillus cereus NCIM 2156 assessed as fractional inhibitory concentration at 0.37 to 50 ug/ml after 24 hrs in presence of […] chloramphenicol by broth micro dilution method; format: functional
[22] = tested on: Escherichia coli; test: Potency index, ratio of sulfamethoxazole MIC to compound MIC for wild type Escherichia coli NCIM 2065; format: functional
[23] = tested on: Bacillus cereus; test: Synergistic antibacterial activity against Bacillus cereus NCIM 2156 at 0.37 to 50 ug/ml after 24 hrs in presence of […] sulfamethoxazole by broth micro dilution method; format: functional; details: NCIM 2156, 24 h
[24] = tested on: Staphylococcus aureus; test: Synergistic antibacterial activity against Staphylococcus aureus NCIM 2079 at 0.37 to 50 ug/ml after 24 hrs in presence of […] chloramphenicol by broth micro dilution method; format: functional; details: NCIM 2079, 24 h
[25] = tested on: Escherichia coli; test: Synergistic antibacterial activity against wild type Escherichia coli NCIM 2065 assessed as fractional inhibitory concentration at 0.37 to 50 ug/ml after 24 hrs in presence of […] sulfamethoxazole by broth micro dilution method; format: functional
[26] = tested on: Staphylococcus aureus; test: Synergistic antibacterial activity against Staphylococcus aureus NCIM 2079 at 0.37 to 50 ug/ml after 24 hrs in presence of […] sulfamethoxazole by broth micro dilution method; format: functional; details: NCIM 2079, 24 h
[27] = tested on: Bacillus cereus; test: Synergistic antibacterial activity against Bacillus cereus NCIM 2156 at 0.37 to 50 ug/ml after 24 hrs in presence of […] chloramphenicol by broth micro dilution method; format: functional; details: NCIM 2156, 24 h
[28] = tested on: Staphylococcus aureus; test: Synergistic antibacterial activity against Staphylococcus aureus NCIM 2079 assessed as fractional inhibitory concentration at 0.37 to 50 ug/ml after 24 hrs in presence of […] sulfamethoxazole by broth micro dilution method; format: functional
[29] = tested on: Pseudomonas aeruginosa; test: Synergistic antibacterial activity against Pseudomonas aeruginosa NCIM 2036 at 0.37 to 50 ug/ml after 24 hrs in presence of […] chloramphenicol by broth micro dilution method; format: functional; details: NCIM 2036, 24 h
[30] = tested on: Pseudomonas aeruginosa; test: Synergistic antibacterial activity against Pseudomonas aeruginosa NCIM 2036 assessed as fractional inhibitory concentration at 0.37 to 50 ug/ml after 24 hrs in presence of […] chloramphenicol by broth micro dilution method; format: functional
[31] = tested on: Bacillus cereus; test: Synergistic antibacterial activity against Bacillus cereus NCIM 2156 assessed as fractional inhibitory concentration at 0.37 to 50 ug/ml after 24 hrs in presence of […] sulfamethoxazole by broth micro dilution method; format: functional
[32] = tested on: Escherichia coli; test: Synergistic antibacterial activity against wild type Escherichia coli NCIM 2065 at 0.37 to 50 ug/ml after 24 hrs in presence of […] sulfamethoxazole by broth micro dilution method; format: functional; details: NCIM 2065, 24 h
[33] = tested on: Pseudomonas aeruginosa; test: Synergistic antibacterial activity against Pseudomonas aeruginosa NCIM 2036 assessed as fractional inhibitory concentration at 0.5 times MIC after 24 hrs in presence of 0.0976 to […] sulfamethoxazole by broth micro dilution method; format: functional
[34] = tested on: Pseudomonas aeruginosa; test: Potency index, ratio of chloramphenicol MIC to compound MIC for Pseudomonas aeruginosa NCIM 2036; format: functional
[35] = tested on: Pseudomonas aeruginosa; test: Synergistic antibacterial activity against Pseudomonas aeruginosa NCIM 2036 at 0.5 times MIC after 24 hrs in presence of 0.0976 to […] sulfamethoxazole by broth micro dilution method; format: functional; details: NCIM 2036, 24 h
[36] = tested on: Escherichia coli; test: Potency index, ratio of chloramphenicol MIC to compound MIC for wild type Escherichia coli NCIM 2065; format: functional

O=S(=O)(Nc1nccs1)c1ccc(Cl)cc1
MIC [1]: 25 mg/L (≈ 91 µM)
MIC [2]: 6.2 mg/L (≈ 22.6 µM)
IC50 [3]: > 100 µM
IC50 [4]: 6.2 µM
IC50 [5]: > 100 µM
MIC [6]: 6.2 mg/L (≈ 22.6 µM)
MIC [7]: 3.1 mg/L (≈ 11.3 µM)
FIC [8]: 0.06
Ratio [9]: 4
FIC [10]: 0.03
fold change (FC) [11]: 32
FIC [12]: 0.24
FIC [13]: 0.06
MIC [14]: 1.5 mg/L
MIC [15]: 0.195 mg/L
MIC [16]: 0.195 mg/L
MIC [17]: 0.195 mg/L
MIC [18]: 3.1 mg/L (≈ 11.3 µM)
Ratio [19]: 4

Cc1ccc(S(=O)(=O)n2cnc3ccccc32)cc1
MIC [1]: 50 mg/L (≈ 184 µM)
MIC [2]: 25 mg/L (≈ 91.8 µM)
IC50 [3]: ≥ 100 µM
FIC [20]: 0.5
IC50 [4]: > 100 µM
IC50 [5]: > 100 µM
MIC [6]: 25 mg/L (≈ 91.8 µM)
MIC [7]: 50 mg/L (≈ 184 µM)
FIC [21]: 0.25
Ratio [22]: 2
MIC [23]: 6.2 mg/L
FIC [12]: 0.24
MIC [24]: 12.5 mg/L
FIC [13]: 0.12
MIC [14]: 6.2 mg/L
FIC [25]: 0.5
MIC [26]: 6.2 mg/L
MIC [27]: 12.5 mg/L
FIC [28]: 0.49
MIC [17]: 0.781 mg/L
MIC [29]: 6.2 mg/L
FIC [30]: 0.24
MIC [18]: 6.2 mg/L (≈ 22.8 µM)
FIC [31]: 0.24
MIC [32]: 3.1 mg/L

O=C(N[C@H](CO)[C@H](O)c1ccc([N+](=O)[O-])cc1)C(Cl)Cl [CHLORAMPHENICOL]
MIC [1]: 50 mg/L (≈ 155 µM)
MIC [2]: 6.2 mg/L (≈ 19.2 µM)
MIC [6]: 6.2 mg/L (≈ 19.2 µM)
MIC [7]: 6.2 mg/L (≈ 19.2 µM)
MIC [18]: 6.2 mg/L (≈ 19.2 µM)

Cc1cc(NS(=O)(=O)c2ccc(N)cc2)no1 [SULFAMETHOXAZOLE]
MIC [1]: 25 mg/L (≈ 98.7 µM)
MIC [2]: 6.2 mg/L (≈ 24.5 µM)
MIC [6]: 3.1 mg/L (≈ 12.2 µM)
MIC [7]: 6.2 mg/L (≈ 24.5 µM)
MIC [18]: 3.1 mg/L (≈ 12.2 µM)

C[C@@H]1C[C@@H]([C@H](O)CC2CC(=O)NC(=O)C2)C(=O)[C@@H](C)C1 [CYCLOHEXIMIDE]
MIC [1]: 50 mg/L (≈ 178 µM)
MIC [2]: 12.5 mg/L (≈ 44.4 µM)
IC50 [3]: 0.2 µM
IC50 [4]: 0.2 µM
IC50 [5]: 0.9 µM
MIC [6]: 12.5 mg/L (≈ 44.4 µM)
MIC [7]: 12.5 mg/L (≈ 44.4 µM)
MIC [18]: 12.5 mg/L (≈ 44.4 µM)

O=[N+]([O-])c1ccc(S(=O)(=O)n2ncc3cc([N+](=O)[O-])ccc32)cc1
MIC [1]: 12.5 mg/L (≈ 35.9 µM)
MIC [2]: 6.2 mg/L (≈ 17.8 µM)
MIC [6]: 3.1 mg/L (≈ 8.9 µM)
MIC [7]: 6.2 mg/L (≈ 17.8 µM)
FIC [8]: 0.03
Ratio [9]: 4
FIC [10]: 0.06
FIC [13]: 0.06
MIC [15]: 0.0976 mg/L
MIC [16]: 0.195 mg/L
FIC [33]: 0.06
Ratio [34]: 2
MIC [17]: 0.195 mg/L
MIC [18]: 3.1 mg/L (≈ 8.9 µM)
MIC [35]: 0.195 mg/L
Ratio [36]: 2
Ratio [19]: 4

O=S(=O)(c1ccc(Cl)cc1)n1cnc2ccccc21
MIC [1]: 50 mg/L (≈ 171 µM)
MIC [2]: 12.5 mg/L (≈ 42.7 µM)
IC50 [3]: > 61.7 µM
FIC [20]: 0.24
IC50 [4]: > 100 µM
IC50 [5]: > 100 µM
MIC [6]: 12.5 mg/L (≈ 42.7 µM)
MIC [7]: 25 mg/L (≈ 85.4 µM)
FIC [21]: 0.24
FIC [8]: 0.03
MIC [23]: 6.2 mg/L
FIC [12]: 0.24
MIC [24]: 3.1 mg/L
FIC [13]: 0.12
MIC [14]: 3.1 mg/L
MIC [15]: 0.0976 mg/L
MIC [26]: 3.1 mg/L
MIC [27]: 6.2 mg/L
FIC [28]: 0.12
MIC [17]: 0.391 mg/L
MIC [29]: 3.1 mg/L
FIC [30]: 0.24
MIC [18]: 3.1 mg/L (≈ 10.6 µM)
FIC [31]: 0.24
Ratio [36]: 2
